The text below walks through data of US8354522B2, “Immunostimulatory oligoribonucleotides” (Coley Pharmaceutical GmbH, priority 2005, dated 2013).

Where two headings read alike, the source gives them in different places. Where only a bound is given, the exact number is not on record here.

The test system of one data set is Bovine PBMC. Put plainly: Cytokine production by bovine PBMC (48 hours, ELISA). The conditions noted are these: 10 μg/ml (H.D.) and 2.5 μg/ml (L.D.). In kind it is cell-based. As for the experimental part:
FIG. 11 is a set of bar graphs showing differences between TLR8 ORN (SEQ ID NO:13) and TLR7/8 ORN (SEQ ID NO:21). SEQ ID NO:5 ORN was used as a control. Bovine PBMC were incubated with either 10 μg/ml ORN (HD) or 2.5 μg/ml ORN (LD) for 48 hours. Supernatants were collected and analyzed by ELISA. FIGS. 11a-c show the level of IL-12, IFN-γ, and TNF-alpha, respectively.
The assay was repeated with a TLR8 ORN (SEQ ID NO:13), a TLR 7/8 ORN (SEQ ID NO:21) and a control ORN (SEQ ID NO:5) (Table 3) at both a high dose (H.D., 10 μg/ml) and a low dose (L.D., 2.5 μg/ml).

In another data set the test system is Human PBMC. Kind of data set: Cytokine production upon human PBMC stimulation (ORN complexed to DOTAP, 16 h, ELISA). In kind it is cell-based. Also on record: key to IFN-alpha / TNF-alpha: +: cytokine production; −: no cytokine production. The conditions noted are these: for IFN-alpha / TNF-alpha: human PBMC stimulated for 16 h, supernatant ELISA; for EC50 / IFN-alpha max activity / TNF-alpha max activity: ORN complexed to DOTAP, 16 h; for EC50: full titration 2 μM to 0.9 nM; for IFN-alpha max activity / TNF-alpha max activity: mean max activity at 0.6 μM, 3-6 blood donors. A digest of the protocol:
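Healthy-donor PBMCs were stimulated for 16 h with ORN complexed to DOTAP (25 μg/ml), titrated in 7 steps of 1/3 from 2 μM (to 0.9 nM). IFN-alpha and TNF-alpha in supernatants were measured by ELISA. Mean/max activity at 0.6 μM and EC50 came from 3-6 donors over two experiments.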

The next data set has as its system isolated pDC. Kind of data set: IFN-alpha production upon isolated pDC stimulation. Format: cell-based, human. The conditions noted are these: 0.5 μM ORN complexed to 10 μg/ml DOTAP, 16 h. As to the method:
FIG. 2 is a set of bar graphs depicting ORN induced cytokine production upon isolated pDC (FIG. 2a), monocytes (FIG. 2b) and mDC (FIG. 2c) stimulation. Cells were stimulated with 0.5 μM ORN complexed to 10 μg/ml DOTAP, 0.5 μM CpG ODN or DOTAP or media alone and IFN-alpha (FIG. 2a), TNF-alpha […] and IL-12p40 (FIG. 2c) were measured.
A similar assay testing different ORN sequences was performed using isolated pDC, monocytes and mDC stimulation. Cells were stimulated with 0.5 μM ORN complexed to 10 μg/ml DOTAP, 0.5 μM CpG ODN or DOTAP or media alone. After 16 h the supernatants were harvested and IFN-alpha, TNF-alpha and IL-12p40 levels were measured by ELISA.

Where [1] appears, read: human PBMC, read-out: IFN-alpha EC50.
The mark [2] stands for this setting: human PBMC, read-out: TNF-alpha EC50.

For “C*C*G*U*C*U*G*U*U*G*U*G*U*G*A*C*U*C (CCGUCUGUUGUGUGACUC; listed as RNA, chemistry not fully specified) [SEQ ID NO: 5, reference compound]”, in the data set with Bovine PBMC, the IFN-γ production result is listed as “stimulated production of IFN-γ”.

Regarding “A*U*A*U*A*U*A*U*A*U*A*U*A*U*A*U*A*U*A*U (AUAUAUAUAUAUAUAUAUAU; chemistry not fully specified) [SEQ ID NO: 12]”, the “IFN-alpha production upon PBMC stimulation (in words)” value in the data set on Human PBMC (human PBMC) is “no IFN-alpha cytokine production”. In the data set with Human PBMC, the IFN-alpha entry is “−” and the TNF-alpha entry was “+”. The “IFN-alpha production upon pDC stimulation (in words)” value in the data set with isolated pDC is on record as “no IFN-alpha cytokine production”.

Take “C*C*G*A*G*C*C*G*C*A*U*A*C*C*C*C (CCGAGCCGCAUACCCC; listed as RNA, chemistry not fully specified) [SEQ ID NO: 45]”: the EC50 with Human PBMC (setting [1]) was 1.7 µM; with Human PBMC (setting [2]), 0.754 µM. In the data set on Human PBMC (human PBMC), this substance showed an IFN-alpha max activity of 98.44 pg/mL. In the data set with Human PBMC (human PBMC), this substance registered a TNF-alpha max activity of 10491 pg/mL.

With “C*C*G*A*G*C*C*G*A*A*U*C*C*C*C*C (CCGAGCCGAAUCCCCC; listed as RNA, chemistry not fully specified) [SEQ ID NO: 44]”, the EC50 is ≥ 1.5 µM with Human PBMC (setting [1]) and 0.321 µM with Human PBMC (setting [2]). Further, the IFN-alpha max activity in the data set with Human PBMC (human PBMC) was found to be 305.6 pg/mL. Further, in the data set with Human PBMC (human PBMC), the TNF-alpha max activity stood at 19473 pg/mL.

As to “U*U*A*U*U*A*U (UUAUUAU; phosphorothioate linkages, chemistry not fully specified) [SEQ ID NO: 30]”, in the data set with Human PBMC, the IFN-alpha entry is reported as “−” and the TNF-alpha entry is given as “+”.

As for “A*A*A*U*A*A*A*U*A*A*A*U*A*A*A*U*A*A*A*U (AAAUAAAUAAAUAAAUAAAU; listed as RNA, chemistry not fully specified) [SEQ ID NO: 17]”, in the data set on Human PBMC, the IFN-alpha entry was “−” and the TNF-alpha entry is “+”.

Take “dN*dN*dN*dN*dN*A*U*A*U*A*U*A*U*dN*dN*dN*dN*dN*dN [SEQ ID NO: 9]”: in the data set with Human PBMC, the IFN-alpha entry is “−” and the TNF-alpha result is recorded as “+”.

For the substance “C*C*G*A*G*C*C*G*C*U*A*U*C*C*C*C (CCGAGCCGCUAUCCCC; listed as RNA, chemistry not fully specified) [SEQ ID NO: 55]”, the EC50 in the data set on Human PBMC (setting [1]) was > 2 µM. In the data set on Human PBMC (setting [2]), the EC50 is 0.337 µM. Moreover, in the data set with Human PBMC (human PBMC), the IFN-alpha max activity came out at 224.4 pg/mL and the TNF-alpha max activity amounted to 15154 pg/mL.

For “C*C*G*A*G*C*C*G*A*A*G*G*U*G*C*C (CCGAGCCGAAGGUGCC; listed as RNA, chemistry not fully specified) [SEQ ID NO: 83]”, the EC50 in the data set on Human PBMC (setting [1]) was > 2 µM. Further, the EC50 in the data set with Human PBMC (setting [2]) came to 0.215 µM. In the data set with Human PBMC (human PBMC), this substance showed an IFN-alpha max activity of 96.22 pg/mL and a TNF-alpha max activity of 12207 pg/mL.

For the substance “C*C*G*A*G*C*C*G*A*T*U*G*U*A*C*C (CCGAGCCGANUGUACC; Oligoribonucleotide, chemistry of T and the '*' linkage is not given here, further chemistry not given here) [SEQ ID NO: 62]”, in the data set with Human PBMC (setting [1]), the EC50 worked out at 0.276 µM. Moreover, the EC50 in the data set on Human PBMC (setting [2]) came out at 0.343 µM. In the data set with Human PBMC (human PBMC), the IFN-alpha max activity was 1945 pg/mL and the TNF-alpha max activity stood at 37334 pg/mL.

In the case of “C*C*G*A*G*C*C*G*A*U*U*G*A*A*C*C (CCGAGCCGAUUGAACC; listed as RNA, chemistry not fully specified) [SEQ ID NO: 76]”, in the data set on Human PBMC (setting [1]), the EC50 was determined as 1.54 µM. The EC50 with Human PBMC (setting [2]) came to 0.109 µM. In the data set on Human PBMC (human PBMC), this substance gave an IFN-alpha max activity of 448.6 pg/mL and a TNF-alpha max activity of 26371 pg/mL.

For the substance “G*U*A*G*G*C*A*C (GUAGGCAC; phosphorothioate linkages, chemistry not fully specified) [SEQ ID NO: 1]”, in the data set with Human PBMC, the IFN-alpha result was “−” and the TNF-alpha result is recorded as “+”.

On to “C*C*G*A*G*C*C*G*C*U*U*A*A*C*C*C (CCGAGCCGCUUAACCC; listed as RNA, chemistry not fully specified) [SEQ ID NO: 49]”, for which the EC50 in the data set on Human PBMC (setting [1]) stood at 0.375 µM; in the data set with Human PBMC (setting [2]), 0.35 µM. The IFN-alpha max activity in the data set with Human PBMC (human PBMC) turned out to be 3367 pg/mL. In addition, the TNF-alpha max activity in the data set with Human PBMC (human PBMC) stood at 18039 pg/mL.

Consider “C*C*G*A*G*C*C*A*U*A*U*A*U*C*C*C (CCGAGCCAUAUAUCCC; listed as RNA, chemistry not fully specified) [SEQ ID NO: 38]”, for which, in the data set on Human PBMC (setting [1]), the EC50 is ≥ 1.5 µM. For the same substance, the EC50 in the data set on Human PBMC (setting [2]) turned out to be 0.89 µM. Also, in the data set with Human PBMC (human PBMC), the IFN-alpha max activity turned out to be 245 pg/mL and the TNF-alpha max activity turned out to be 14064 pg/mL.

Regarding “C*C*G*A*G*C*C*G*C*U*A*U*A*C*C*C (CCGAGCCGCUAUACCC; listed as RNA, chemistry not fully specified) [SEQ ID NO: 37]”, the figures for the EC50 with Human PBMC (setting [1]) and in the data set on Human PBMC (setting [2]) were ≥ 1.5 µM and 0.75 µM, respectively. Also, in the data set on Human PBMC (human PBMC), the IFN-alpha max activity turned out to be 240.5 pg/mL. The TNF-alpha max activity in the data set on Human PBMC (human PBMC) is 22800 pg/mL.

For “C*C*G*A*G*C*C*G*C*U*U*A*C*C*C*C (CCGAGCCGCUUACCCC; listed as RNA, chemistry not fully specified) [SEQ ID NO: 53]”, in the data set with Human PBMC (setting [1]), the EC50 is 0.244 µM. The EC50 in the data set with Human PBMC (setting [2]) came out at 0.952 µM. Besides, in the data set on Human PBMC (human PBMC), the IFN-alpha max activity is 3091 pg/mL and the TNF-alpha max activity was found to be 14623 pg/mL.

Regarding “C*C*G*A*G*C*C*G*A*U*U*C*T*A*C*C (CCGAGCCGAUUCNACC; Oligoribonucleotide, chemistry of T and the '*' linkage is not given here, further chemistry not given here) [SEQ ID NO: 75]”, the EC50 in the data set on Human PBMC (setting [1]) came out at 1.3 µM; with Human PBMC (setting [2]) it was 0.129 µM. Moreover, the IFN-alpha max activity in the data set on Human PBMC (human PBMC) was found to be 929.9 pg/mL. The substance further had a TNF-alpha max activity in the data set on Human PBMC (human PBMC) of 27576 pg/mL.

For the substance “C*C*G*A*G*C*C*G*C*A*A*U*U*C*C*C [SEQ ID NO: 52] (CCGAGCCGCAAUUCCC; listed as RNA, chemistry not fully specified)”, the results for the EC50 in the data set with Human PBMC (setting [1]) and with Human PBMC (setting [2]) were 0.508 µM and 0.895 µM, respectively. The same substance registered an IFN-alpha max activity in the data set on Human PBMC (human PBMC) of 2263 pg/mL. In the data set with Human PBMC (human PBMC), the TNF-alpha max activity stood at 11920 pg/mL.

Regarding “I*U*A*I*U*A*I*U*A*I*U*A*I*U*A*I*U*A*I*U (NUANUANUANUANUANUANU; inosine, phosphorothioate linkages, chemistry not fully specified) [SEQ ID NO: 27]”, in the data set with Human PBMC, the IFN-alpha result is recorded as “+” and the TNF-alpha entry was “+”.

As to “C*C*G*A*G*C*C*G*C*C*G*C*C*C*C*C (CCGAGCCGCCGCCCCC; listed as RNA, chemistry not fully specified) [SEQ ID NO: 35]”, the EC50 in the data set with Human PBMC (setting [1]) was > 2 µM. In the data set with Human PBMC (human PBMC), this substance yielded an IFN-alpha max activity of 70.6 pg/mL and a TNF-alpha max activity of 2854 pg/mL.
